In brackets after ≈: the same amount, converted by molar mass.
How the values were obtained:
E. faecium CT-26 = test: MIC determination, E. faecium CT-26; type: cell-based, Enterococcus faecium; conditions: for MIC E. faecium CT-26: Table 1
S. aureus ATCC 29213 = test: MIC determination, S. aureus ATCC 29213; type: cell-based, Staphylococcus aureus; conditions: Table 1
E. faecalis ATCC 29212 = test: MIC determination, E. faecalis ATCC 29212; type: cell-based, Enterococcus faecalis; conditions: Table 1
[1] = system: M. catarrhalis ATCC 25238; test: MIC determination, M. catarrhalis ATCC 25238; type: cell-based; conditions: for MIC M. catarrhalis ATCC 25238: Table 1
S. pneumoniae ATCC 6301 = test: MIC determination, S. pneumoniae ATCC 6301; type: cell-based, Streptococcus pneumoniae; conditions: for MIC S. pneumoniae ATCC 6301: Table 1
[2] = system: S. epidermidis ATCC 12228; test: MIC determination, S. epidermidis ATCC 12228; type: cell-based, Staphylococcus epidermidis; conditions: for MIC S. epidermidis ATCC 12228: Table 1

Row | SMILES | MIC E. faecium CT-26 (E. faecium CT-26) [micrograms per ml] | MIC S. aureus ATCC 29213 (S. aureus ATCC 29213) [micrograms per ml] | MIC E. faecalis ATCC 29212 (E. faecalis ATCC 29212) [micrograms per ml] | MIC M. catarrhalis ATCC 25238 [1] [micrograms per ml] | MIC S. pneumoniae ATCC 6301 (S. pneumoniae ATCC 6301) [micrograms per ml] | MIC S. epidermidis ATCC 12228 [2] [micrograms per ml] | MIC (E. faecium CT-26; Enterococcus faecium, CT26, Table 1, read-out: MIC E. faecium CT-26) [µg/mL] | MIC ([1]; Moraxella catarrhalis, ATCC25238, Table 1, read-out: MIC M. catarrhalis ATCC 25238) [µg/mL] | MIC (S. pneumoniae ATCC 6301; Streptococcus pneumoniae, ATCC6301, Table 1, read-out: MIC S. pneumoniae ATCC 6301) [µg/mL] | MIC ([2]; Staphylococcus epidermidis, ATCC12228, Table 1, read-out: MIC S. epidermidis ATCC 12228) [µg/mL]
1 | Oc1cccc2cccnc12 [Compound 90, 8-hydroxyquinoline] | 2 | 2 | 8 | 2 | 1 | 2 | – | – | – | –
2 | Oc1cccc2cccnc12 [Compound 37, 8-hydroxyquinoline] | 2 | 1 | 8 | 1 | 1 | 1 | – | – | – | –
3 | Oc1cccc2cccnc12 [Compound 15, 8-hydroxyquinoline] | 4 | 0.125 | 16 | 0.5 | 2 | 1 | – | – | – | –
4 | Oc1ccc(Cl)c2cccnc12 [Compound 13] | – | 0.125 | 64 | – | – | – | 2 (≈ 11.1 µM) | 0.25 (≈ 1.39 µM) | 1 (≈ 5.57 µM) | 1 (≈ 5.57 µM)
5 | Oc1cccc2cccnc12 [Compound 97, 8-hydroxyquinoline] | 2 | 2 | 8 | 1 | 1 | 1 | – | – | – | –
6 | Oc1cccc2cccnc12 [Compound 68, 8-hydroxyquinoline] | 4 | 2 | 32 | 0.12 | 16 | 2 | – | – | – | –
7 | Oc1ccc(F)c2cccnc12 [Compound 34] | 4 | 1 | 8 | 1 | 2 | 2 | – | – | – | –
8 | Oc1cccc2cccnc12 [Compound 77, 8-hydroxyquinoline] | 4 | 2 | 8 | 2 | 1 | 1 | – | – | – | –
9 | Oc1cccc2cccnc12 [Compound 28, 8-hydroxyquinoline] | 2 | 0.5 | 4 | 1 | 2 | 1 | – | – | – | –
10 | Oc1cccc2cccnc12 [Compound 94, 8-hydroxyquinoline] | 4 | 2 | 8 | 2 | 1 | 1 | – | – | – | –

From patent US7390806B2, “Antibiotics containing borinic acid complexes and methods of use” (Anacor Pharmaceuticals, Inc., priority 2002, dated 2008)
